Measurements as given in ChEMBL document CHEMBL1148883, “Hit-to-lead studies on benzimidazole inhibitors of ITK: discovery of a novel class of kinase inhibitors” (Bioorg Med Chem Lett, 2007).
Blank lines part the entries; values can stand above or below the molecule they belong to.

What was measured:
[1] = target: Rho-associated protein kinase 2 (Homo sapiens) (UniProt O75116); experiment: Inhibition of ROCK2 at 10 uM
[2] = target: Tyrosine-protein kinase SYK (Homo sapiens) (UniProt P43405); experiment: Inhibition of SYK at 10 uM
[3] = target: Tyrosine-protein kinase JAK3 (Homo sapiens) (UniProt P52333); experiment: Inhibition of JAK3 at 10 uM
Tyrosine-protein kinase JAK3 (Homo sapiens), sequence (P52333 whole entry): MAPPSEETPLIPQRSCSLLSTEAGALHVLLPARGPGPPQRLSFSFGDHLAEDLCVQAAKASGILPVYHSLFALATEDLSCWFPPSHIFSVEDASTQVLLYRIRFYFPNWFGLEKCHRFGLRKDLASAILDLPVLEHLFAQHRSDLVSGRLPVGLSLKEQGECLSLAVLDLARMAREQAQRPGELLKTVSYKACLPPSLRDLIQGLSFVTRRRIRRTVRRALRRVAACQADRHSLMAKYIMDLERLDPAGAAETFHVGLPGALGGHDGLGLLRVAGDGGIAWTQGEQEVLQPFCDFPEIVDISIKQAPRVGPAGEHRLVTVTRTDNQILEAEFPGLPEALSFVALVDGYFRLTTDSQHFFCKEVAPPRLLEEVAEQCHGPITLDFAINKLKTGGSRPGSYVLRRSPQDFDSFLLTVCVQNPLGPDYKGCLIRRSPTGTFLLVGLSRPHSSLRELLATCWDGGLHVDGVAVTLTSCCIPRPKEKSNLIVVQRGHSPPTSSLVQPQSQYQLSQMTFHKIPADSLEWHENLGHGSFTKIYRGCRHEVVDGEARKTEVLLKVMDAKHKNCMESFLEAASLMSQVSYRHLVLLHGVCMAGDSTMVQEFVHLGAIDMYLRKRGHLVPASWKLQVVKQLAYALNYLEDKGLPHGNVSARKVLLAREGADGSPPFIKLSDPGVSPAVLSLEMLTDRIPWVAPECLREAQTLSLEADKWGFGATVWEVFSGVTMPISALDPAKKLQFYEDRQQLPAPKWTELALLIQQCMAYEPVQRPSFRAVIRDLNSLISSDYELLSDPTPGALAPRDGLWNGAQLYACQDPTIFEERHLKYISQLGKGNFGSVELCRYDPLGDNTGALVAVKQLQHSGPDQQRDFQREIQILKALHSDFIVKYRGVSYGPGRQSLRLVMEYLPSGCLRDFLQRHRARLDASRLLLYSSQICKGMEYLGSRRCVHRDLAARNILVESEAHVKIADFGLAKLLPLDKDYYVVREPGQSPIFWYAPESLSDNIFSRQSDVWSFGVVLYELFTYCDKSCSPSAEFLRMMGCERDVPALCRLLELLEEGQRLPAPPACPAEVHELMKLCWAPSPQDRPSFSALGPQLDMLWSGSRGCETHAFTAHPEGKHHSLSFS

[4] = target: MAP kinase-activated protein kinase 2 (Homo sapiens) (UniProt P49137); experiment: Inhibition of MAPKAPK2 at 10 uM
MAP kinase-activated protein kinase 2 (Homo sapiens), sequence (P49137 whole entry, looked up): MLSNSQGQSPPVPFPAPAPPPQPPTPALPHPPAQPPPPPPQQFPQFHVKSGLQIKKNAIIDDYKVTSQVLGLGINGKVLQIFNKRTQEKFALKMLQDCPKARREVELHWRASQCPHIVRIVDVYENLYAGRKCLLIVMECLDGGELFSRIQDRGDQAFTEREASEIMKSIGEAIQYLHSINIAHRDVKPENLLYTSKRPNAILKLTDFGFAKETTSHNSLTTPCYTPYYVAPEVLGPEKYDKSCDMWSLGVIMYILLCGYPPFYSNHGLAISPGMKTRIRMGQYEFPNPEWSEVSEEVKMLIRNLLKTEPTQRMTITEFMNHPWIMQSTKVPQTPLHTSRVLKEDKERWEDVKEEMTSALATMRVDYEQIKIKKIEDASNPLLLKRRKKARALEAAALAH

[5] = target: Protein kinase C beta type (Homo sapiens) (UniProt P05771); experiment: Inhibition of PKCbeta at 10 uM
[6] = target: T1, Tyrosine-protein kinase ITK/TSK (Homo sapiens, UniProt Q08881); experiment: Effect on human ITK in DT40 cells assessed as […] of calcium influx by FLIPR assay; type: cell-based
T1 sequence (Q08881 whole entry): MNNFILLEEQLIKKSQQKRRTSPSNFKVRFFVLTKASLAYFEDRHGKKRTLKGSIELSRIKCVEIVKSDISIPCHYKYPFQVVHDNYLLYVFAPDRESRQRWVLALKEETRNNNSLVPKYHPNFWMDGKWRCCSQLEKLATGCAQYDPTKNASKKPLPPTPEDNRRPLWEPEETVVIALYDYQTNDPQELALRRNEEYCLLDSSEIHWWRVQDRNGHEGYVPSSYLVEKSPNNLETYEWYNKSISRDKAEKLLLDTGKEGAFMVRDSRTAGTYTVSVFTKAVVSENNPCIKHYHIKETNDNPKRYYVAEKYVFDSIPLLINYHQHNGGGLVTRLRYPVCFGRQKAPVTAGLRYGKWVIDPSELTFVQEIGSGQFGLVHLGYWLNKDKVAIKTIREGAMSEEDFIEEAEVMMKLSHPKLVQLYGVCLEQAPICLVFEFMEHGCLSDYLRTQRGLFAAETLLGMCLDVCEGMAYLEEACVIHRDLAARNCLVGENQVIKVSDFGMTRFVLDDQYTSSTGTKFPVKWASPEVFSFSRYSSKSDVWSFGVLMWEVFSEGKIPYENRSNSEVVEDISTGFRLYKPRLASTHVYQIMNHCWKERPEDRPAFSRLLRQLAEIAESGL

[7] = target: Cyclin-dependent kinase 2 (Homo sapiens) (UniProt P24941); experiment: Inhibition of CDK2 at 10 uM
[8] = target: Tyrosine-protein kinase TXK (Homo sapiens, UniProt P42681); experiment: Inhibition of TXK
Tyrosine-protein kinase TXK, sequence (P42681 whole entry): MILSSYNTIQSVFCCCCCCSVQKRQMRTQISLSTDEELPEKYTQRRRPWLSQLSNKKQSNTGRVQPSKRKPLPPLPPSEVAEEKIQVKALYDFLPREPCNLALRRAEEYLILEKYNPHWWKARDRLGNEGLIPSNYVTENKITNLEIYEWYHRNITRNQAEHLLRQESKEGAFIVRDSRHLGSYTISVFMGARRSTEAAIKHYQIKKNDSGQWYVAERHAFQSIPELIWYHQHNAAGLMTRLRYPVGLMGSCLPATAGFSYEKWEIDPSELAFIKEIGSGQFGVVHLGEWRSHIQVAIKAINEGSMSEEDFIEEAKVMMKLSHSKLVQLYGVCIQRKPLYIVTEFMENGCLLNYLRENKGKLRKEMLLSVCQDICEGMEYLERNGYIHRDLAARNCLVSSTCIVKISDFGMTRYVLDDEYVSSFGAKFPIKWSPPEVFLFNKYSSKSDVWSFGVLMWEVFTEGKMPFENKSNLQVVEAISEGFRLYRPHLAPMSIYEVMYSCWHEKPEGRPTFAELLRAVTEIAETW

[9] = target: T1, Tyrosine-protein kinase ITK/TSK; experiment: Inhibition of human ITK in presence of 20 uM ATP
[10] = target: Epidermal growth factor receptor (Homo sapiens, UniProt P00533); experiment: Inhibition of EGFR
Epidermal growth factor receptor, sequence (P00533 whole entry): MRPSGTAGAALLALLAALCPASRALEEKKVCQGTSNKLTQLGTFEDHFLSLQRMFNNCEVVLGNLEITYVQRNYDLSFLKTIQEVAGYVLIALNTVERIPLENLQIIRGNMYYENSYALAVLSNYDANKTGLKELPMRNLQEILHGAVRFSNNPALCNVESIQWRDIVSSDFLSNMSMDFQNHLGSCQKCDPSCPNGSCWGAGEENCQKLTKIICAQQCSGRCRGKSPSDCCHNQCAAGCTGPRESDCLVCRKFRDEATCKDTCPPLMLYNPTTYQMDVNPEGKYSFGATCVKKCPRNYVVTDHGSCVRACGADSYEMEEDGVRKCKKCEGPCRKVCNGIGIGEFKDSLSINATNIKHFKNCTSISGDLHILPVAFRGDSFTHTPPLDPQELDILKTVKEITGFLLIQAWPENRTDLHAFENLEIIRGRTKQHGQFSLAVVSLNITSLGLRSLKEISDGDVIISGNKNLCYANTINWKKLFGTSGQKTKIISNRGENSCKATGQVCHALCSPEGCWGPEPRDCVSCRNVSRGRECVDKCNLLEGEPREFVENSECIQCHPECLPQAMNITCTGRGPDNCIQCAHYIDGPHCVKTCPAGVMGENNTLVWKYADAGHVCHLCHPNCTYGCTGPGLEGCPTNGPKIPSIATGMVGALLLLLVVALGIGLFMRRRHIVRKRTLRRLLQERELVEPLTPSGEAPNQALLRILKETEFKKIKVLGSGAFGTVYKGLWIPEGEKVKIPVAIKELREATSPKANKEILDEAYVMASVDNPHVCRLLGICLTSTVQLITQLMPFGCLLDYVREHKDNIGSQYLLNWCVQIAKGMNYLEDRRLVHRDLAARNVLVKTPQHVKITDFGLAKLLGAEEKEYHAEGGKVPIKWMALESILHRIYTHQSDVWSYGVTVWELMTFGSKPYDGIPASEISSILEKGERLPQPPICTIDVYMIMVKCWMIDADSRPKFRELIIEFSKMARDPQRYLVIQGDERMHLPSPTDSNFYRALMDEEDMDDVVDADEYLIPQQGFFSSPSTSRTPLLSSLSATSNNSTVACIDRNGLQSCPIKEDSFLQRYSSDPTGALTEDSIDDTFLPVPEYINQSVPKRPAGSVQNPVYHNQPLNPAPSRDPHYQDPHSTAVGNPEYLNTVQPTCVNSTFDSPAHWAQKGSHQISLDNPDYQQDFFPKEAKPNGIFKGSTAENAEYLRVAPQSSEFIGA

[11] = target: Ephrin type-A receptor 2 (Homo sapiens, UniProt P29317); experiment: Inhibition of ECK
[12] = target: T1, Tyrosine-protein kinase ITK/TSK; experiment: Inhibition of human ITK in presence of 500 uM ATP
[13] = target: Tyrosine-protein kinase BTK (Homo sapiens, UniProt Q06187); experiment: Inhibition of BTK
Tyrosine-protein kinase BTK, sequence (Q06187 whole entry): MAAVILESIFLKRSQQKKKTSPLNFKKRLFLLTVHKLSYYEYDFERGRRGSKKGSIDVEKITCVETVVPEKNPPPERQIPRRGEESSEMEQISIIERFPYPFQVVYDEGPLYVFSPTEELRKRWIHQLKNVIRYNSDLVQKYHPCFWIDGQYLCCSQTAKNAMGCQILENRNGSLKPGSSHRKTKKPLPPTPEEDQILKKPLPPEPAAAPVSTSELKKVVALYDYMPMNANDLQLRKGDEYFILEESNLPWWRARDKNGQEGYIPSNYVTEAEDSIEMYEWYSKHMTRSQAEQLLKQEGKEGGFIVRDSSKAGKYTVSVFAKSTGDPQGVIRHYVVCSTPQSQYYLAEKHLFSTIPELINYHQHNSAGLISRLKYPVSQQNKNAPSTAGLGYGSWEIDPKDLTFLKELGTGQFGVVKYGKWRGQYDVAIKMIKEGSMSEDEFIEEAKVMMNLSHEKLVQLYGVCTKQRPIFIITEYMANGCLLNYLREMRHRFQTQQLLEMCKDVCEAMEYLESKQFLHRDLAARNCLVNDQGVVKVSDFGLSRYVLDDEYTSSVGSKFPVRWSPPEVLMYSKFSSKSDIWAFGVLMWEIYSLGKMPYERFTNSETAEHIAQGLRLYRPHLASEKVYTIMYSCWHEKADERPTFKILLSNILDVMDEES

[14] = target: Hepatocyte growth factor receptor (Homo sapiens, UniProt P08581); experiment: Inhibition of HGFR
[15] = target: Tyrosine-protein kinase Lyn (Homo sapiens, UniProt P07948); experiment: Inhibition of LYN
Tyrosine-protein kinase Lyn, sequence (P07948 whole entry): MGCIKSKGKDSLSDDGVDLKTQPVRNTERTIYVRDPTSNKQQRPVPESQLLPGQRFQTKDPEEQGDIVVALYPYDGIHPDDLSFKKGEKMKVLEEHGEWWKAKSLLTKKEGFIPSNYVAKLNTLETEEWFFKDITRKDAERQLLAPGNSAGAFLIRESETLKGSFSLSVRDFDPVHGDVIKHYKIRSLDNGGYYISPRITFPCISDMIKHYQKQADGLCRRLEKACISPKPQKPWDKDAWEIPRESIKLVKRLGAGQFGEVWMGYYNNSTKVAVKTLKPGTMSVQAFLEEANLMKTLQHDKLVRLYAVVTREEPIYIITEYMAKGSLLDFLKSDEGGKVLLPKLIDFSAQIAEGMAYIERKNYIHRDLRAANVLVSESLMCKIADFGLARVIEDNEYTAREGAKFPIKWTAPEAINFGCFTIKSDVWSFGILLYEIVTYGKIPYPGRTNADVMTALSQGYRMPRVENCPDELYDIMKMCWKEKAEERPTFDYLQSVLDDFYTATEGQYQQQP

[16] = target: T1, Tyrosine-protein kinase ITK/TSK; experiment: Inhibition of human ITK in presence of 3 uM ATP
[17] = target: T1, Tyrosine-protein kinase ITK/TSK; experiment: Inhibition of human ITK in presence of 100 uM ATP
[18] = target: Tyrosine-protein kinase Tec (Homo sapiens, UniProt P42680); experiment: Inhibition of TEC
[19] = target: Cytoplasmic tyrosine-protein kinase BMX (Homo sapiens, UniProt P51813); experiment: Inhibition of BMX
[20] = target: Serine/threonine-protein kinase Chk1 (Homo sapiens) (UniProt O14757); experiment: Inhibition of CHK1 at 10 uM
[21] = target: Cyclin-dependent kinase 5 (Homo sapiens) (UniProt Q00535); experiment: Inhibition of CDK5 at 10 uM
Cyclin-dependent kinase 5 (Homo sapiens), sequence (Q00535 whole entry, looked up): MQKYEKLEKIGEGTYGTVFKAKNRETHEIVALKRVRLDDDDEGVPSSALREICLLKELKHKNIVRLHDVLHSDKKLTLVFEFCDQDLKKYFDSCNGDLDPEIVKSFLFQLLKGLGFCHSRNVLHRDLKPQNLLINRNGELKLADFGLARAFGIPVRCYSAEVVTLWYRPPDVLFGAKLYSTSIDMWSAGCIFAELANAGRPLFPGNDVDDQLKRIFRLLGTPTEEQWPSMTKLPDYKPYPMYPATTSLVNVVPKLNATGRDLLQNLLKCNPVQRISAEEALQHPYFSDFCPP

[22] = target: Platelet-derived growth factor receptor (Homo sapiens) (UniProt P09619+P16234); experiment: Inhibition of PDGFR at 10 uM; type: protein-complex assay
[23] = Inhibition of IRK; set-up: species or system Homo sapiens
[24] = target: Dual specificity mitogen-activated protein kinase kinase 1 (Homo sapiens) (UniProt Q02750); experiment: Inhibition of MKK1 at 10 uM
[25] = target: T1, Tyrosine-protein kinase ITK/TSK; experiment: Inhibition of human ITK by DELFIA assay
[26] = target: Vascular endothelial growth factor receptor 1 (Homo sapiens, UniProt P17948); experiment: Inhibition of VEGFR1
[27] = target: Fibroblast growth factor receptor 3 (Homo sapiens, UniProt P22607); experiment: Inhibition of FGFR3

inhibition [1]: -1% | inhibition [2]: 6% | inhibition [3]: -7% | inhibition [4]: 1% | inhibition [5]: 21% | IC50 [6]: 2400 nM | inhibition [7]: 7% | IC50 [8]: 1400 nM | IC50 [9]: 80 nM | IC50 [10]: > 6000 nM | IC50 [11]: > 10000 nM | IC50 [12]: 1100 nM | IC50 [13]: > 22000 nM | IC50 [14]: > 10000 nM | IC50 [15]: > 10000 nM | IC50 [16]: 25 nM | IC50 [17]: 240 nM | IC50 [18]: 22000 nM | IC50 [19]: > 22000 nM | inhibition [20]: 8% | inhibition [21]: -4% | inhibition [22]: 10% | IC50 [23]: 200 nM | inhibition [24]: -2% | IC50 [25]: 25 nM | IC50 [26]: > 10000 nM | IC50 [27]: > 6000 nM
Compound: CN(C(=O)C1CCCCC1)c1ccc2c(c1)nc(NC(=O)c1cccs1)n2CCCN

IC50 [25]: > 20000 nM
Compound: NC(=O)CCn1c(NC(=O)c2ccccc2)nc2cc(C(=O)N(C3CCCCC3)C3CCCCC3)ccc21

IC50 [25]: > 20000 nM
Compound: NC(=O)CCn1c(NC(=O)c2ccccc2)nc2cc(C(=O)NC3CCCCC3)ccc21

IC50 [25]: > 20000 nM
Compound: NCCCn1c(NC(=O)c2cccs2)nc2cc(C(=O)OC3CCCCC3)ccc21

IC50 [25]: > 20000 nM
Compound: NC(=O)CCn1c(NC(=O)c2ccsc2)nc2cc(C(=O)NC3CCCCC3)ccc21
